Test results reported in US12447147B2, “Methods of treating, ameliorating, and/or preventing cancer using pyrvinium compositions” (Thomas Jefferson University, priority 2019, dated 2025).
Like-named read-outs stand apart in the source and are kept apart here.

What was measured:
VEGF DNA binding to HuR = VEGF DNA binding to HuR (Homo sapiens, UniProt Q15717); experiment: Inhibition of VEGF DNA binding to HuR; conditions: for Mean Max % I: mean of n1 and n2; for Max % I, n1: replicate n1; for Max % I, n2: replicate n2
COX2 DNA binding to HuR = COX2 DNA binding to HuR (Homo sapiens, UniProt Q15717); experiment: Inhibition of COX2 DNA binding to HuR; conditions: for Mean Max % I: mean of n1 and n2; for Max % I, n1: replicate n1; for Max % I, n2: replicate n2
[1] = target: HuR binding to target mRNA VEGF (Homo sapiens, UniProt Q15717); experiment: Inhibition of HuR binding to target mRNA VEGF; conditions: given as a range
[2] = target: HuR binding to target mRNA COX2 (Homo sapiens, UniProt Q15717); experiment: Inhibition of HuR binding to target mRNA COX2; conditions: given as a range
HS766T = experiment: 5 day viability assay (Pico Green), HS766T; format: cell-based; conditions: 120 h
Protocol: (§1) The efficacy of pyrvinium pamoate was determined in a panel of PDA cell lines.

MIA-PaCa2 = experiment: 5 day viability assay (Pico Green), MIA-PaCa2; format: cell-based; conditions: Homo sapiens, MIA PaCa-2, 120 h
Protocol: as §1

Panc-1 = experiment: 5 day viability assay (Pico Green), Panc-1; format: cell-based; conditions: Homo sapiens, 120 h
Protocol: as §1

CFPAC = experiment: 5 day viability assay (Pico Green), CFPAC; format: cell-based; conditions: 120 h
Protocol: as §1

PDX-X139 = experiment: 5 day viability assay (Pico Green), PDX cell line; format: cell-based; conditions: 120 h
Excerpt: (§2) KPC mice have both an activating KRAS mutation (KRAS is mutated in up to 90% of PDA) and a loss of P53 driven by a pancreas specific Cre promoter. The KTC organoid model is derived from a GEMM that has a driver KRAS mutation and greater than 2-fold overexpression of HuR, specifically in the pancreas.

KTC Organoids = experiment: 5 day viability assay (Pico Green), KTC organoids; format: cell-based; conditions: Mus musculus, 120 h
Excerpt: as §2

MIA-PaCa2 cells = experiment: MIA-PaCa2 flank tumor growth in mice; format: in vivo, nude mice; conditions: for tumor growth: 1 mg/kg IP 3 times weekly vs vehicle, MIA-PaCa2 flank tumors started at 100 mm^3
Excerpt: as §2

[3] = Synergy with CDK4/6 inhibitors (FIGS. 13A-13F)
[4] = In vivo models, pyrvinium pamoate and ademaciclib (FIGS. 14A-14C)
[5] = oral tablets or suspensions; urine up to 96 hours after each dose; cited from earlier work
cyclin Dl = experiment: Cyclin D1 knockdown (FIG. 12)
PDA = experiment: Tumor volume, PARP inhibitor with or without shHuR; format: in vivo
Excerpt: HuR (ELAVL1) is an RNA binding protein that, upon exposure to a variety of intrinsic cancer related stressors, binds to a network of pro-survival mRNAs leading to an increase in their stability and translation. […] HuR CRISPR knockout PDA cell lines have a xenograft lethal phenotype. […] HuR is also important for oxaliplatin resistance in PDA. Utilizing a tumor microarray (TMA) from resected patient samples of PDA, it was discovered that 79% (n=80) of patients were positive for cytoplasmic HuR, with little to no cytoplasmic localization detected in adjacent normal tissues. HuR is a driver of chemoresistance in PDA and thus a prime target for re-sensitizing PDA cells to current therapies. While several compounds have been investigated as HuR inhibitors, to date there are no clinically viable HuR inhibitors.

[6] = mean of n1 and n2, read-out: Mean IC50
[7] = replicate n1, read-out: IC50, n1
[8] = replicate n2, read-out: IC50, n2

VEGF DNA binding to HuR, sequence (Q15717 whole entry): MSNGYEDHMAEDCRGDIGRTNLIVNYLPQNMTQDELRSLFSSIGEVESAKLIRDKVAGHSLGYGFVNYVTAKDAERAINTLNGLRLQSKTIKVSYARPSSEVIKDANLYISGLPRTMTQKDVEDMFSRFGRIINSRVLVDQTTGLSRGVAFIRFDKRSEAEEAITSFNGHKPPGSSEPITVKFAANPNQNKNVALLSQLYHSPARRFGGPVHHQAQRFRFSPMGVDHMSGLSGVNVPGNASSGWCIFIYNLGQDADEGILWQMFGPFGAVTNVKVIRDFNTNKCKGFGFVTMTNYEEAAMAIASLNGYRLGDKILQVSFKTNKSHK
HuR binding to target mRNA VEGF, sequence (Q15717 whole entry): as above
HuR binding to target mRNA COX2, sequence (Q15717 whole entry): as above
COX2 DNA binding to HuR, sequence (Q15717 whole entry): as above

Compound	Mean Max % I (VEGF DNA binding to HuR) [%]	IC50 (VEGF DNA binding to HuR; [6]) [µM]	Max % I, n1 (VEGF DNA binding to HuR) [%]	IC50 (VEGF DNA binding to HuR; [7]) [µM]	Max % I, n2 (VEGF DNA binding to HuR) [%]	IC50 (VEGF DNA binding to HuR; [8]) [µM]	Mean Max % I (COX2 DNA binding to HuR) [%]	IC50 (COX2 DNA binding to HuR; [6]) [µM]	Max % I, n1 (COX2 DNA binding to HuR) [%]	IC50 (COX2 DNA binding to HuR; [7]) [µM]	Max % I, n2 (COX2 DNA binding to HuR) [%]	IC50 (COX2 DNA binding to HuR; [8]) [µM]	also measured
Cc1cccc2c3c(ccc12)C1=C(C(=O)C3=O)[C@@H](C)CO1 [DHTS]	92.9	1.5	86.5	1.07	99.2	2.12	94.0	0.599	100.0	1.08	88.1	0.332	
O=C1[O][Pt]2([NH][C@@H]3CCCC[C@H]3[NH]2)[O]C1=O [Oxaliplatin]		> 20		> 20		> 20		> 20	100.0	> 20	100.0	> 20	IC50 [1]: > 20 µM; IC50 [2]: > 20 µM
Cc1cc(/C=C/c2ccc3cc(N(C)C)ccc3[n+]2C)c(C)n1-c1ccccc1 [PP, pyrvinium pamoate]	86.8	0.149	87.2	0.187	86.5	0.118	89.3	0.198	88.8	0.34	89.8	0.115	IC50 [1]: 0.203 to 0.416 µM; IC50 [2]: 0.207 to 0.453 µM; IC50 (HS766T): 0.093 µM; IC50 (MIA-PaCa2): 0.04 µM; IC50 (Panc-1): 0.092 µM; IC50 (CFPAC): 0.021 µM; IC50 (PDX-X139): 0.009 µM; IC50 (KTC Organoids): 0.093 µM; tumor growth (MIA-PaCa2 cells): reduced tumor growth; tumor growth (MIA-PaCa2 cells; listed as pyrvinium pamoate): significant decrease; mouse weights (MIA-PaCa2 cells; 1 mg/kg IP 3 times weekly, MIA-PaCa2 tumor-bearing mice): no changes; effect with CDK4/6 inhibitors [3]: synergistic effect; efficacy in in vivo models [4]: efficacious; urine levels of pyrvinium vs the 24 hr prior to administration [5]: not significantly different; knockdown of cyclin Dl (cyclin Dl): causes a knockdown
CCN1CCN(Cc2ccc(Nc3ncc(F)c(-c4cc(F)c5nc(C)n(C(C)C)c5c4)n3)nc2)CC1 [ademaciclib]													efficacy in in vivo models [4]: efficacious
O=C(c1cc(Cc2n[nH]c(=O)c3ccccc23)ccc1F)N1CCN(C(=O)C2CC2)CC1 [olaparib]													reduction in tumor volume (PDA; combined with shHuR (DOX-inducible)): 9.3 fold; reduction in tumor volume (PDA; olaparib alone): 5.6 fold
Verteporfin	74.7	0.144	77.0	0.167	72.4	0.124	92.7	0.029	92.9	0.028	92.4	0.03	

Now from value to compound, other results behind:

Mean Max % I (VEGF DNA binding to HuR) [%]	IC50 (VEGF DNA binding to HuR; [6]) [µM]	Max % I, n1 (VEGF DNA binding to HuR) [%]	IC50 (VEGF DNA binding to HuR; [7]) [µM]	Max % I, n2 (VEGF DNA binding to HuR) [%]	IC50 (VEGF DNA binding to HuR; [8]) [µM]	Mean Max % I (COX2 DNA binding to HuR) [%]	IC50 (COX2 DNA binding to HuR; [6]) [µM]	Max % I, n1 (COX2 DNA binding to HuR) [%]	IC50 (COX2 DNA binding to HuR; [7]) [µM]	Max % I, n2 (COX2 DNA binding to HuR) [%]	IC50 (COX2 DNA binding to HuR; [8]) [µM]	Compound	also measured
78.7	1.29	85.6	1.28	71.9	1.3	81.6	0.674	81.1	0.593	82.1	0.767	COc1ccc(C(CC(=O)N2CCCC2)c2c(OC)cc(OC)c3c(-c4ccccc4)cc(=O)oc23)cc1 (stereo not drawn) [CMLD2]	
	> 20		> 20		> 20		> 20	100.0	> 20	100.0	> 20	Nc1ccn([C@@H]2O[C@H](CO)[C@@H](O)C2(F)F)c(=O)n1 [Gemcitabine]	IC50 [1]: > 20 µM; IC50 [2]: > 20 µM
99.8	0.016	100.0	0.015	99.5	0.017	100.0	0.033	100.0	0.033	100.0	0.032	Cc1occ2c1C(=O)c1c(O)ccc(O)c1C2 [MS444]	
78.3	5.41		5.05	74.9	5.79	83.8	2.95		2.22	84.1	3.91	CC(=O)O[C@H]1C(=O)[C@@]2(C)[C@H]([C@H](OC(=O)c3ccccc3)[C@]3(O)C[C@H](OC(=O)[C@H](O)[C@@H](NC(=O)c4ccccc4)c4ccccc4)C(C)=C1C3(C)C)[C@]1(OC(C)=O)CO[C@@H]1C[C@@H]2O [Paclitaxel]	
100.0	7.38	100.0	6.09	100.0	8.93	100.0	5.47	100.0	4.08	100.0	7.34	Dihydro-tashinone	
